Laboratory results: ChEMBL document CHEMBL5370571, “α-Synuclein Aggregation Inhibitory and Antiplasmodial Activity of Constituents from the Australian Tree Eucalyptus cloeziana” (J Nat Prod, 2023)
Calls of active or inactive are those of the source. The rule behind the calls is not given here.

Tests used:
[1] = system: Plasmodium falciparum; assay: Antiplasmodial activity against ring stage drug-sensitive Plasmodium falciparum 3D7 assessed as inhibition of parasite growth incubated for 72 hrs by DAPI staining based assay; format: functional, organism-based; conditions: 3D7, 72 h
[2] = system: HEK293; assay: Cytotoxicity against HEK293 cells assessed as reduction in cell viability at 80 uM measured after 72 hrs by resazurin dye based fluorescence assay relative to control; format: toxicity; conditions: human, hek293, 72 h
[3] = Selectivity index, ratio of IC50 for cytotoxicity against HEK293 cells to IC50 for antiplasmodial activity against ring stage drug-sensitive Plasmodium falciparum 3D7; format: toxicity, cell-based; conditions: human, HEK293 cells versus ring stage Plasmodium falciparum 3D7; read-out: Ratio IC50
[4] = Cytotoxicity against HEK293 cells assessed as reduction in cell viability measured after 72 hrs by resazurin dye based fluorescence assay; format: toxicity; conditions: human
[5] = target: Alpha-synuclein (Homo sapiens) (UniProt P37840); assay: Binding affinity to human alpha-synuclein expressed in Escherichia coli BL21 (DE3) at 100 uM incubated for 3 hrs by ETD Q-TOF ((+) HRESIMS) analysis
[6] = system: Staphylococcus aureus; assay: Antibacterial activity against methicillin-susceptible Staphylococcus aureus ATCC 25923 at 64 ug/mL incubated for 16 to 18 hrs by resazurin dye based fluorescence assay; format: functional, organism-based; conditions: dose 64.0 µg/ml, time 16-18 hrs
[7] = system: Staphylococcus aureus; assay: Antibacterial activity against methicillin-resistant Staphylococcus aureus ATCC 43300 at 64 ug/mL incubated for 16 to 18 hrs by resazurin dye based fluorescence assay; format: functional, organism-based; conditions: dose 64.0 µg/ml, time 16-18 hrs
[8] = system: Pseudomonas aeruginosa; assay: Antibacterial activity against Pseudomonas aeruginosa ATCC 27853 at 64 ug/mL incubated for 18 hrs by resazurin dye based fluorescence assay; format: functional, organism-based; conditions: dose 64.0 µg/ml
[9] = target: Alpha-synuclein (Homo sapiens) (UniProt P37840); assay: Inhibition of human alpha-synuclein aggregation expressed in Escherichia coli BL21 (DE3) at 10:1 compound to protein molar ratio measured after 36 hrs by thioflavin T fluorescence assay relative to control; conditions: concentration not given here
[10] = target: Alpha-synuclein (Homo sapiens) (UniProt P37840); assay: Inhibition of human alpha-synuclein aggregation expressed in Escherichia coli BL21 (DE3) at 400 uM measured after 36 hrs by thioflavin T fluorescence assay
[11] = system: Plasmodium falciparum; assay: Antiplasmodial activity against Plasmodium falciparum 3D7 assessed as inhibition of parasite growth; format: functional, organism-based
[12] = system: Plasmodium falciparum; assay: Antiplasmodial activity against ring stage drug-sensitive Plasmodium falciparum 3D7 assessed as inhibition of parasite growth at 40 uM incubated for 72 hrs by DAPI staining based assay; format: functional, organism-based

Row | Compound | IC50 [1] [nM] | Activity [2] | selectivity ratio [3] | Activity [5] | also measured
1 | C[C@H]1[C@H](OC(=O)CCC(=O)O)O[C@@H]2O[C@@]3(C)CC[C@H]4[C@H](C)CC[C@@H]1[C@@]24OO3 [ARTESUNATE] | 1.4 | 20% | 1750 |  | 
2 | CCc1nc(N)nc(N)c1-c1ccc(Cl)cc1 [PYRIMETHAMINE] | 17 | 31% | 588 |  | 
3 | COc1ccc(C[C@H](N)C(=O)N[C@H]2[C@@H](O)[C@H](n3cnc4c(N(C)C)ncnc43)O[C@@H]2CO)cc1 [PUROMYCIN] | 91 |  | 9.2 |  | IC50 at 72 h [4]: 837 nM
4 | CC1(C)CC2=C(OO1)C(C)(C)C(=O)C(C)(C)C2=O |  | Non-Toxic |  | inactive | 
5 | CC(=O)O[C@@H]1C(C)(C)C(=O)C(C)(C)C(=O)[C@]1(O)CC(C)C |  |  |  | inactive | 
6 | CC(C)(O)[C@@H]1CC[C@@]2(C)CCC[C@@](C)(O)[C@@H]2C1 |  |  |  | inactive | 
7 | CC(C)C[C@@]1(O)C(=O)C(C)(C)C(=O)C(C)(C)[C@H]1OC(=O)C(C)C | 6600 | Non-Toxic | > 12.1 | inactive | Activity [6]: inactive; Activity [7]: inactive; Activity [8]: inactive
8 | CC(C)C[C@]1(O)C(O)=C([C@@H](C2=C(O)C(C)(C)C(=O)C(C)(C)C2=O)C(C)C)C(=O)C([C@H](C2=C(O)C(C)(C)C(=O)C(C)(C)C2=O)C(C)C)=C1O | 9500 | Non-Toxic | > 8.4 | Active | inhibition [9]: 39.5%; inhibition [10]: inactive; Activity [6]: inactive; Activity [7]: inactive; Activity [8]: inactive
9 | CC(C)CC(=O)c1c(O)c2c(c3c1O[C@@]1(C(C)C)OC4=C(C(=O)C(C)(C)C(=O)C4(C)C)[C@@H]31)OC1=C(C(=O)C(C)(C)C(=O)C1(C)C)[C@@H]2CC(C)C |  |  |  |  | IC50 [11]: > 40000 nM
10 | CC1(C)C=C2C(=O)C(C)(C)C(=O)C(C)(C)[C@@]2(O)OO1 |  |  |  | inactive | 
11 | CC(C)=C[C@@]1(O)C(=O)C(C)(C)C(=O)C(C)(C)[C@H]1OC(=O)C(C)C | 16000 | Non-Toxic | > 5 | inactive | Activity [6]: inactive; Activity [7]: inactive; Activity [8]: inactive
12 | O=C1C=C(c2ccc(O)cc2)[C@@]2(O1)O[C@@]1(OC(=O)C=C1c1ccc(O)cc1)C(c1ccc(O)cc1)=C2c1ccc(O)cc1 |  |  |  |  | IC50 [11]: 5100 nM
13 | CC(C)CC(=O)c1c(O)c2c(c3c1O[C@@]1(C(C)C)OC4=C(C(=O)C(C)(C)C(=O)C4(C)C)[C@@H]31)OC1=C(C(=O)C(C)(C)C(=O)C1(C)C)[C@H]2CC(C)C |  |  |  |  | IC50 [11]: 1000 nM
14 | CC(C)=CC(=O)[C@]1(O)[C@@H](O)C(C)(C)C(=O)C1(C)C |  |  |  | inactive | 
15 | CC(C)CC[C@]1(O)[C@H](O)C(C)(C)[C@@H](O)C(C)(C)[C@@H]1O |  |  |  |  | Activity [12]: inactive
